The values that follow come from patent US20180193401A1, “ANTI-OBESITY COMPOSITION COMPRISING NATURAL COMPLEX” (MEGABIOWOOD CO., LTD., priority 2017, published 2018).

Assay [1] concerns C57BL/6J mice. Nature of the assay: Analysis of blood lipids. The class given is in vivo. The note with it: HD (high-fat diet), HCA 300 mg/kg BW/day oral, 8 weeks. The text has this:
(§1) Four-week-old male C57BL/6J mice were purchased from Central Lab-Animal Inc. (Seoul, Korea), adapted for a week to a normal diet in which fats accounted for 10% of the total calories, and then used for experiments. To induce obesity, a high fat diet in which fats accounted for 60% of the total calories was supplied to all groups other than a normal diet (ND) group and an ND sample group, and a normal diet in which fats accounted for 10% of the total calories was freely supplied to the ND group and the ND sample group for a total of 8 weeks. The experimental groups were divided into a total of 6 groups: a ND group, a high fat diet (HD) group, a positive control (HCA), a sample group (ND+JMW) in which a hot-water extract complex of bamboo leaves plus quince was administered to the ND group, and sample-efficacy groups (HD+JMW200 and HD+JMW400) in which a two-fold concentration of the hot-water extract complex of bamboo leaves plus quince was administered to the high fat diet group. In this case, ten mice were assigned to each group using a randomized block design, and used for experiments. To check an anti-obesity effect of the sample extract for 8 weeks (week 1 to 8) after a one-week adaptation, the test material was dissolved in distilled water, and orally administered to the positive control, the ND sample group, and the HD sample-efficacy groups once a day at a concentration of 300 mg/kg BW/day, 400 mg/kg BW/day, 200 mg/kg BW/day, and 400 mg/kg BW/day, respectively. Also, distilled water was administered to the ND group and the HD group. An amount of blood lipids (triglycerides and cholesterol) was measured in the laboratory animals treated with the hot-water extract complex of bamboo leaves plus quince.

Assay [2] relates to C57BL/6J mice. The assay can be described thus: Weight of adipose tissues (EAT, BAT). The class given is in vivo. The note with it: HD (high-fat diet), HCA 300 mg/kg BW/day oral, 8 weeks.
Source text: as §1, with “[…] The weights” for “To check an anti-obesity effect”, “adipose tissues” for “sample extract for 8 weeks (week 1 to 8) after a one-week adaptation, the test material was dissolved in distilled water, and orally administered to the positive control, the ND sample group, and the HD sample-efficacy groups once a day at a concentration of 300 mg/kg BW/day, 400 mg/kg BW/day, 200 mg/kg BW/day, and 400 mg/kg BW/day, respectively. Also, distilled water was administered to the ND group and the HD group. An amount of blood lipids (triglycerides and cholesterol) was measured”, “quince were measured.” for “quince.”

The subject of assay [3] is 3T3-L1 adipocytes. The assay can be described thus: Analysis of leptin production (ELISA kit). Format: cell-based. As to conditions: 100 μg/mL; differentiated adipocytes 0.50±0.01. The procedure:
An adipocyte 3T3-L1 cell line was purchased from the American Type Culture Collection (Rockville, Md., USA), and cultured at 37° C. in a DMEM (Invitrogen, USA) medium supplemented with 10% fetal bovine serum (FBS; Invitrogen, USA) in a 5% CO2 incubator. To avoid contamination, 100 units/mL of penicillin and 100 μg/mL of streptomycin (Gibco/BRL, USA) as antibiotics were added thereto, and the cells were treated with trypsin-EDTA (Gibco/BRL, USA), and sub-cultured. The medium was replaced with a fresh one every two or three days. For treatment with the extract complex, the cultured 3T3-L1 cell line was transferred to a 24-well plate (Corning, USA) at a density of 1×10^5 cells/well. After the medium was replaced with a FBS-free medium the next evening, the 3T3-L1 cell line was treated for 16 hours. Leptin is a hormone that is produced by an obesity gene in adipocytes. Thus, a blood leptin concentration has been widely used for obesity research as an indicator of body fat mass because a secretion rate of leptin increases with an increase in fat accumulated in the adipocytes. […] 3T3-L1 adipocytes were treated with each of the 30% ethanol extract complex of bamboo leaves plus quince and the hot-water extract complex of bamboo leaves plus quince at concentrations of 50 and 100 μg/mL, and a concentration of leptin was then measured using an ELISA kit.

Assay [4] deals with 3T3-L1 adipocytes. The assay can be described thus: Analysis of triglyceride content. The class given is cell-based. The note with it: 100 μg/mL; differentiated adipocytes 126.2±1.25. Here is the method: (§2) An adipocyte 3T3-L1 cell line was purchased from the American Type Culture Collection (Rockville, Md., USA), and cultured at 37° C. in a DMEM (Invitrogen, USA) medium supplemented with 10% fetal bovine serum (FBS; Invitrogen, USA) in a 5% CO2 incubator. To avoid contamination, 100 units/mL of penicillin and 100 μg/mL of streptomycin (Gibco/BRL, USA) as antibiotics were added thereto, and the cells were treated with trypsin-EDTA (Gibco/BRL, USA), and sub-cultured. The medium was replaced with a fresh one every two or three days. For treatment with the extract complex, the cultured 3T3-L1 cell line was transferred to a 24-well plate (Corning, USA) at a density of 1×10^5 cells/well. After the medium was replaced with a FBS-free medium the next evening, the 3T3-L1 cell line was treated for 16 hours. 3T3-L1 adipocytes were treated with each of the 30% ethanol extract complex of bamboo leaves plus quince and the hot-water extract complex of bamboo leaves plus quince at concentrations of 50 and 100 μg/mL to measure a concentration of triglycerides.

Assay [5] relates to 3T3-L1 adipocytes. The assay can be described thus: Analysis of glycerol release. Format: cell-based. The note with it: 100 μg/mL; differentiated adipocytes 18.10±2.28. The procedure: as §2, with “measure an amount of glycerol production. An amount of glycerol production in undifferentiated pre-adipocytes was 2.46±1.34 μg/mL, an amount of glycerol production in differentiated adipocytes was 18.10±2.28 μg/mL, and an amount of glycerol production in the positive control was 32.09±1.23 μg/mL when HCA was present at” for “measure”, “100 μg/m L.” for “triglycerides.”

For assay [6], the system named is C57BL/6J mice. The assay can be described thus: Body weight gain, food intake and food efficiency ratio, 8-week oral administration. The class given is in vivo. As to conditions: HD (high-fat diet), HCA 300 mg/kg BW/day oral, 8 weeks.
Source text: as §1, with “After” for “An amount of blood lipids (triglycerides and cholesterol) was measured in the”, “were adapted for a week,” for “treated with”, “quince was orally administered to the C57BL/6J mice for 8 weeks to observe a change in body weight.” for “quince.”

Where “and” joins values, the source holds several entries; their conditions need not be identical. Identical values can stand only once. Marks after values point to notes of the source that are not given here.

In the case of `O=C(O)CC(O)(C(=O)O)C(O)C(=O)O` (stereo not shown) [HCA, hydroxycitric acid], in the assay on C57BL/6J mice [1], the HDL-cholesterol is 75.66 mg/dL and 75.66 ± 8.11^b mg/dL; the LDL-cholesterol is 131.06 ± 6.82^b mg/dL; the “Total cholesterol (blood)” value is 241.53 mg/dL and 241.53 ± 8.87^b mg/dL; the “Triglyceride (blood)” value was 174.08 mg/dL and 174.08 ± 3.49^b mg/dL. In addition, the LDL-cholesterol in the assay on C57BL/6J mice [1] (listed as positive control) was found to be 131.06 mg/dL. In addition, in the assay on C57BL/6J mice [2], the “BAT (brown adipose tissue) weight” value is on record as 0.09 ± 0.02^b g; the “EAT (epididymal adipose tissue) weight” value is 1.70 g and 1.70 ± 0.14^b g. In addition, in the assay on 3T3-L1 adipocytes [3], the “amount of leptin production” value came out at 0.39 ± 0.01 ng/mL. This molecule also gave a triglyceride content with 3T3-L1 adipocytes [4] of 98.01±1.24 μg/mg protein. In addition, in the assay on 3T3-L1 adipocytes [5], the “amount of glycerol production” value was found to be 32.09 ± 1.23 µg/mL. Besides, in the assay with C57BL/6J mice [6], the Final body weight is 33.50 ± 3.58^b g; the Food intake was 3.79 g/day and 3.79 ± 0.05^c g/day; the Weight gain is 12.83 g/8 weeks and 12.83 ± 0.94^b g/8 weeks.
